In PubChem BioAssay AID588631 (NMMLSC, 2011):
Active and inactive are the calls of the source. The rule behind the calls is not given here.

Molecular target: Ras-related protein Rab7 wild type (dog)
Assay: Rab7 wildtype GTP binding inhibitors, SAR follow-up, biochemical, dog Rab7, bead multiplex flow cytometry, round 2 (AID 588631)
Conditions: Bead-based multiplex flow cytometry, fluorescent GTP binding; for percent response (remaining binding): at 100 µM (top of the series)

| Compound | percent response (remaining binding) | EC50 [nM] |
| --- | --- | --- |
| CC(C)(C)C1Cc2c(sc(NC(=S)NC(=O)c3ccccc3)c2C(=O)O)CO1 (stereo not given) | inactive | – |
| CC1(C)Cc2c(sc(NC(=S)NC(=O)c3cccc(Br)c3)c2C(=O)O)CO1 | – | 3990 |
| CC1(C)Cc2c(sc(NC(=S)NC(=O)c3ccc(Br)cc3)c2C(=O)O)CO1 | – | 496 |
| CC1(C)Cc2c(sc(NC(=S)NC(=O)c3ccccc3F)c2C(=O)O)CO1 | – | 318 |
| Cc1ccccc1C(=O)NC(=S)Nc1sc2c(c1C(=O)O)CC(C)(C)OC2 | – | 411 |
| COc1ccccc1C(=O)NC(=S)Nc1sc2c(c1C(=O)O)CC(C)(C)OC2 | – | 1120 |
| CC1(C)Cc2c(sc(NC(=S)NC(=O)c3cccc(F)c3)c2C(=O)O)CO1 | – | 415 |
| CC1(C)Cc2c(sc(NC(=S)NC(=O)c3ccccc3Br)c2C(=O)O)CO1 | – | 1210 |
| Cc1cccc(C(=O)NC(=S)Nc2sc3c(c2C(=O)O)CC(C)(C)OC3)c1 | – | 1160 |
| CC1(C)Cc2c(sc(NC(=S)NC(=O)C3CCCCC3)c2C(=O)O)CO1 | – | 809 |
| CC1(C)Cc2c(sc(NC(=S)Nc3ccccc3)c2C(=O)O)CO1 | inactive | – |

More lines, in order of falling EC50, values ahead:

| percent response (remaining binding) | EC50 [nM] | Compound |
| --- | --- | --- |
| – | 295 | COc1cccc(C(=O)NC(=S)Nc2sc3c(c2C(=O)O)CC(C)(C)OC3)c1 |
| – | 221 | COc1ccc(C(=O)NC(=S)Nc2sc3c(c2C(=O)O)CC(C)(C)OC3)cc1 |
| – | 135 | Cc1ccc(C(=O)NC(=S)Nc2sc3c(c2C(=O)O)CC(C)(C)OC3)cc1 |
| – | 95 | CC1(C)Cc2c(sc(NC(=S)NC(=O)c3ccc(F)cc3)c2C(=O)O)CO1 |
| – | 74 | CC1(C)Cc2c(sc(NC(=S)NC(=O)c3ccco3)c2C(=O)O)CO1 |
| – | 46 | CC1(C)CCc2sc(NC(=S)NC(=O)c3ccccc3)c(C(=O)O)c2C1 |
| – | 37 | CCC1(C)Cc2c(sc(NC(=S)NC(=O)c3ccccc3)c2C(=O)O)CO1 (stereo not given) |
| – | 35 | O=C(NC(=S)Nc1sc2c(c1C(=O)O)CC1(CCCC1)OC2)c1ccccc1 |
| – | 25 | CC1(C)Cc2c(sc(NC(=S)NC(=O)c3cccs3)c2C(=O)O)CO1 |
